Legend:
[1] = Time dependent inhibition of human CYP3A in human liver microsomes using midazolam as substrate preincubated for 30 mins in presence of NADPH-generating system followed by substrate addition incubated for 10 mins by LC-MS/MS analysis; type: ADME
[2] = Inactivation of CYP3A in human liver microsomes at 0.25 uM using midazolam as substrate in presence of NADPH generating system and catalase; type: ADME
CYP3A4 [3] = molecular target: T1, CYP3A4 (Homo sapiens, UniProt P08684); assay: (§1) Ratio of IC50 for time dependent inhibition of recombinant human CYP3A4 incubated for 30 mins by LC-MS/MS analysis to IC50 for time dependent inhibition of recombinant human CYP3A4 using midazolam as substrate preincubated for 30 mins in presence of NADPH-generating system followed by substrate addition further incubated for 30 mins by LC-MS/MS analysis; details: recombinant human CYP3A4, probe midazolam, read-out: Ratio IC50
CYP3A [4] = assay: as §1, with “CYP3A in” for “recombinant”, “liver microsomes” for “CYP3A4”; details: probe midazolam, read-out: Ratio IC50
Cytochrome P450 3A4 [5] = molecular target: T2, Cytochrome P450 3A4 (Homo sapiens, UniProt P08684); assay: Inactivation of recombinant human CYP3A4 assessed as partition ratio in presence of NADPH-generating system; type: ADME; details: recombinant enzyme
Cytochrome P450 3A5 [6] = molecular target: T3, Cytochrome P450 3A5 (Homo sapiens, UniProt P20815); assay: Time dependent inhibition of recombinant human CYP3A5 using midazolam as substrate preincubated for 30 mins in presence of NADPH generating system followed by substrate addition incubated for 30 mins by LC-MS/MS analysis; type: ADME
[7] = Time dependent inhibition of CYP3A in human liver microsomes incubated for 30 mins in presence of NADPH generating system by LC-MS/MS analysis; type: ADME
[8] = Time dependent inhibition of CYP3A in human liver microsomes using midazolam as substrate preincubated for 30 mins in presence of NADPH generating system followed by substrate addition incubated for 30 mins by LC-MS/MS analysi; type: ADME
Cytochrome P450 3A4 [9] = molecular target: T2, Cytochrome P450 3A4; assay: Time dependent inhibition of recombinant human CYP3A4 incubated for 30 mins in presence of NADPH generating system by LC-MS/MS analysis; type: ADME
Cytochrome P450 3A5 [10] = molecular target: T3, Cytochrome P450 3A5; assay: Time dependent inhibition of recombinant human CYP3A5 incubated for 30 mins in presence of NADPH generating system by LC-MS/MS analysis; type: ADME
Cytochrome P450 3A7 [11] = molecular target: T4, Cytochrome P450 3A7 (Homo sapiens, UniProt P24462); assay: Time dependent inhibition of recombinant human CYP3A7 incubated for 30 mins in presence of NADPH generating system by LC-MS/MS analysis; type: ADME
Cytochrome P450 3A4 [12] = molecular target: T2, Cytochrome P450 3A4; assay: Time dependent inhibition of recombinant human CYP3A4 using midazolam as substrate preincubated for 30 mins in presence of NADPH generating system followed by substrate addition incubated for 30 mins by LC-MS/MS analysi; type: ADME
Cytochrome P450 3A7 [13] = molecular target: T4, Cytochrome P450 3A7; assay: Time dependent inhibition of recombinant human CYP3A7 using midazolam as substrate preincubated for 30 mins in presence of NADPH generating system followed by substrate addition incubated for 30 mins by LC-MS/MS analysi; type: ADME
[14] = Inactivation of CYP3A in human liver microsomes at 0.25 uM using midazolam as substrate in presence of NADPH generating system and mannitol; type: ADME
CYP3A5 = CYP3A5 (Homo sapiens, UniProt P20815); assay: as §1, with “CYP3A5” for “CYP3A4”; details: recombinant human CYP3A5, probe midazolam, read-out: Ratio IC50
[15] = Inactivation of CYP3A in human liver microsomes at 0.25 uM using midazolam as substrate in presence of NADPH generating system and super oxide dismutase; type: ADME
[16] = Inactivation of CYP3A in human liver microsomes at 0.25 uM using midazolam as substrate in presence of NADPH generating system and ferric cyanide; type: ADME
CYP3A7 = CYP3A7 (Homo sapiens, UniProt P24462); assay: as §1, with “CYP3A7” for “CYP3A4”; details: recombinant human CYP3A7, probe midazolam, read-out: Ratio IC50
CYP3A [17] = assay: Inactivation of CYP3A in human liver microsomes using midazolam as substrate assessed as enzyme remaining activity in presence of glutathione; type: ADME; details: probe midazolam, read-out: INH
[18] = Inhibition of CYP3A in human liver microsomes at 2.5 uM using Nifedipine as substrate at 10 to 20 fold excess concentration preincubated for 5 mins followed by beta-NADP addition and measured upto 12 mins; type: ADME; details: 0.2 h, time <=17 min
[19] = Inhibition of CYP3A in human liver microsomes at 2.5 uM using de-oxyschizandrin as substrate at 10 to 20 fold excess concentration preincubated for 5 mins followed by beta-NADP addition and measured upto 12 mins; type: ADME; details: 0.2 h, time <=17 min
CYP3A4 [20] = molecular target: T1, CYP3A4; assay: Time dependent inhibition of CYP3A4 in human liver microsomes assessed as enzyme remaining activity at 2.5 uM using midazolam as substrate preincubated for 30 mins in presence of NADPH-generating system relative to control; type: ADME; details: probe midazolam, read-out: TDI
CYP3A4 [21] = molecular target: T1, CYP3A4; assay: Time dependent inhibition of recombinant human CYP3A4 assessed as enzyme remaining activity at 2.5 uM using midazolam as substrate preincubated for 30 mins in presence of NADPH-generating system relative to control; type: ADME; details: recombinant human CYP3A4, probe midazolam, read-out: TDI
CYP3A4 [22] = assay: Time dependent inhibition of CYP3A4 in human liver microsomes assessed as enzyme remaining activity at 2.5 uM using midazolam as substrate incubated for 30 mins relative to control; type: ADME; details: probe midazolam, read-out: TDI
CYP3A4 [23] = molecular target: T1, CYP3A4; assay: Time dependent inhibition of recombinant human CYP3A4 assessed as enzyme remaining activity at 2.5 uM using midazolam as substrate incubated for 30 mins relative to control; type: ADME; details: recombinant human CYP3A4, probe midazolam, read-out: TDI
Cytochrome P450 3A4 [24] = molecular target: T2, Cytochrome P450 3A4; assay: Inactivation of CYP3A4 in human liver microsomes assessed as inhibition constant using midazolam as substrate preincubated for 5 mins followed by beta-NADP addition for 15 mins and midazolam addition after 10 mins in presence of NADPH-generating system by LC-MS/MS analysis; type: ADME
Cytochrome P450 3A4 [25] = molecular target: T2, Cytochrome P450 3A4; assay: Inactivation of recombinant human CYP3A4 assessed as inhibition constant using midazolam as substrate preincubated for 5 mins followed by beta-NADP addition for 15 mins and midazolam addition after 10 mins in presence of NADPH-generating system by LC-MS/MS analysis; type: ADME
CYP3A4 [26] = molecular target: T1, CYP3A4; assay: Inactivation of CYP3A4 in human liver microsomes assessed as inactivation constant using midazolam as substrate preincubated for 5 mins followed by beta-NADP addition for 15 mins and midazolam addition after 10 mins in presence of NADPH-generating system by LC-MS/MS analysis; type: ADME; details: probe midazolam, time 30 min
CYP3A4 [27] = molecular target: T1, CYP3A4; assay: Inactivation of recombinant human CYP3A4 assessed as inactivation constant using midazolam as substrate preincubated for 5 mins followed by beta-NADP addition for 15 mins and midazolam addition after 10 mins in presence of NADPH-generating system by LC-MS/MS analysis; type: ADME; details: recombinant human CYP3A4, probe midazolam, time 30 min
CYP3A4 [28] = molecular target: T1, CYP3A4; assay: Inactivation of recombinant human CYP3A4 at 0.1 uM for 10 mins relative to control; type: ADME
Cytochrome P450 3A4 [29] = molecular target: T2, Cytochrome P450 3A4; assay: Drug metabolism assessed as human CYP3A4-mediated M1 metabolite formation at 7.32 mins in presence of NADPH generating system by LC-MS/MS analysis; type: ADME; details: recombinant enzyme, 0.122 h
Cytochrome P450 3A4 [30] = molecular target: T2, Cytochrome P450 3A4; assay: Drug metabolism assessed as human CYP3A4-mediated M2 metabolite formation at 7.80 mins in presence of NADPH generating system by LC-MS/MS analysis; type: ADME; details: recombinant enzyme, 0.13 h, time 7.8 min
[31] = Drug metabolism assessed as human CYP2D6-mediated M1 metabolite formation at 7.32 mins in presence of NADPH generating system by LC-MS/MS analysis; type: ADME; details: recombinant enzyme, 0.122 h
[32] = Drug metabolism assessed as human CYP2D6-mediated M2 metabolite formation at 7.80 mins in presence of NADPH generating system by LC-MS/MS analysis; type: ADME; details: recombinant enzyme, 0.13 h, time 7.8 min
CYP3A [33] = assay: Inhibition of CYP3A in human liver microsomes at 1 uM using midazolam as substrate incubated for 10 mins relative to control; type: ADME; details: probe midazolam
CYP3A [34] = assay: Time dependent inhibition of CYP3A in human liver microsomes assessed as enzyme remaining activity at 10 uM using N-ethyl-1,8-naphthalimide as substrate preincubated for 30 mins in presence of NADPH generating system followed by substrate addition and incubated for 10 mins by microplate reader analysis relative to control; type: ADME; details: probe N-ethyl-1,8-naphthalimide, time 40 min, read-out: TDI
CYP3A [35] = assay: Inhibition of CYP3A in human liver microsomes at 10 uM using midazolam as substrate incubated for 10 mins relative to control; type: ADME; details: probe midazolam

T2 sequence (P08684 whole entry): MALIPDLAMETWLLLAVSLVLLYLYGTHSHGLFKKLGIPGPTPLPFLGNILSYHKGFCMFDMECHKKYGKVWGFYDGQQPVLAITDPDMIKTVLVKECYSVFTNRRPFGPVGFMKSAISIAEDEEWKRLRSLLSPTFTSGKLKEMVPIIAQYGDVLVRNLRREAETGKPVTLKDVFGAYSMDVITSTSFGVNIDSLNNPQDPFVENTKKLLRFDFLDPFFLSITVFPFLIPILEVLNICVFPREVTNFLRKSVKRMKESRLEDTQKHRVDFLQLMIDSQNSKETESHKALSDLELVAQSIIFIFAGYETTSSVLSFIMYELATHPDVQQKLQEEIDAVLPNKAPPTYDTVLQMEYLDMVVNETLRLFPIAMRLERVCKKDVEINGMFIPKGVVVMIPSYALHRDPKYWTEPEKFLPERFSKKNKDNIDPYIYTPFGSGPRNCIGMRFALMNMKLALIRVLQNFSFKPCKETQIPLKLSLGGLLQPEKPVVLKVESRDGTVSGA
T1 sequence (P08684 whole entry): as above
T3 sequence (P20815 whole entry): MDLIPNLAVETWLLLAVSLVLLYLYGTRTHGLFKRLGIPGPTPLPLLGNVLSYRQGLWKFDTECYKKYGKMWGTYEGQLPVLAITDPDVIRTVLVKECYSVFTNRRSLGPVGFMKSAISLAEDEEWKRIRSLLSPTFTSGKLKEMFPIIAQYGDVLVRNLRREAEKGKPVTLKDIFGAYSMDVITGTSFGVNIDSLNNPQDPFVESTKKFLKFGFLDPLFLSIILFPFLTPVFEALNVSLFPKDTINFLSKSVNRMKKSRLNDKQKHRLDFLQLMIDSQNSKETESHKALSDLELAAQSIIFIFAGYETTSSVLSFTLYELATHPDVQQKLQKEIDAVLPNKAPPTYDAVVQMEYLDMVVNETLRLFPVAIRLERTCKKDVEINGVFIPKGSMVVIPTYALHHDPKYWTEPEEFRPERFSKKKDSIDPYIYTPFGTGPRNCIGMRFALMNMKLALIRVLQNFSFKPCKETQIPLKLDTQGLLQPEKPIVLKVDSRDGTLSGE
T4 sequence (P24462 whole entry): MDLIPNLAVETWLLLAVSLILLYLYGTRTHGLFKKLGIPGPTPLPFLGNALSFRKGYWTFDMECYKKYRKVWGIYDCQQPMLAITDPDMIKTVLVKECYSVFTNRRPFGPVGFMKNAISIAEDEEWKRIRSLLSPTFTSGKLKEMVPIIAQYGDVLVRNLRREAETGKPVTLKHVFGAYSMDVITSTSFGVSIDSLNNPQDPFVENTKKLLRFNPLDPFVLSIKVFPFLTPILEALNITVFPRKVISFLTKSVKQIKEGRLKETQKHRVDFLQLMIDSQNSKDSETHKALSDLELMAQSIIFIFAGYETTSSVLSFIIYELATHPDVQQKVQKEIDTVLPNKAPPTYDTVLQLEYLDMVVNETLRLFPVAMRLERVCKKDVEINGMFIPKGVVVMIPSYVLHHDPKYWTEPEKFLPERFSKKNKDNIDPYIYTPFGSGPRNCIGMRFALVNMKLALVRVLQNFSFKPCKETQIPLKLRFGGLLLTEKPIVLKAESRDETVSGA
CYP3A5, sequence (P20815 whole entry): as the sequence (P20815 whole entry) above
CYP3A7, sequence (P24462 whole entry): as the sequence (P24462 whole entry) above

## C[C@]12CCC(=O)C[C@H]1CC[C@@H]1[C@@H]2CC[C@]2(C)[C@@H](c3ccc(=O)oc3)CC[C@]12O
[1]
  IC50: 0.03 µM
[2]
  inhibition (INH): Active
CYP3A4 [3]
  IC50 shift at 0.5 h: 17.3
CYP3A [4]
  IC50 shift at 0.5 h: 12.3
Cytochrome P450 3A4 [5]
  Ratio: 0.75
Cytochrome P450 3A5 [6]
  IC50: 2.34 µM
[7]
  IC50: 0.37 µM
[8]
  IC50: 0.45 µM
Cytochrome P450 3A4 [9]
  IC50: 1.56 µM
Cytochrome P450 3A5 [10]
  IC50: 5.49 µM
Cytochrome P450 3A7 [11]
  IC50: 10.8 µM
Cytochrome P450 3A4 [12]
  IC50: 0.09 µM
Cytochrome P450 3A7 [13]
  IC50: 64.8 µM
[14]
  inhibition (INH): Active
CYP3A5
  IC50 shift at 0.5 h: 5.87
[15]
  inhibition (INH): Active
[16]
  inhibition (INH): Active
CYP3A7
  IC50 shift at 0.5 h: 17.5
CYP3A [17]
  activity: 43.8%
[18]
  inhibition (INH): Not Active
[19]
  inhibition (INH): Not Active
CYP3A4 [20]
  activity at 30 min, 2.5 µM: 19.7%
CYP3A4 [21]
  activity at 30 min, 2.5 µM: 11.9%
CYP3A4 [22]
  activity at 0.5 h, 2.5 µM: 72.5%
CYP3A4 [23]
  activity at 0.5 h, 2.5 µM: 81.2%
Cytochrome P450 3A4 [24]
  Ki: 0.66 µM
Cytochrome P450 3A4 [25]
  Ki: 0.25 µM
CYP3A4 [26]
  kinact: 0.00107 s⁻¹
CYP3A4 [27]
  kinact: 0.00268 s⁻¹
CYP3A4 [28]
  inhibition at 10 min, 0.1 µM: 50%
Cytochrome P450 3A4 [29]
  Drug metabolism: Metabolite_Detected
Cytochrome P450 3A4 [30]
  Drug metabolism: Metabolite_Detected
[31]
  Drug metabolism: Metabolite_Detected
[32]
  Drug metabolism: Metabolite_Detected
CYP3A [33]
  inhibition at 10 min, 1 µM: 49%

## CC(=O)O[C@H]1[C@H]2O[C@]23[C@@H]2CC[C@@H]4CC(=O)CC[C@]4(C)[C@H]2CC[C@]3(C)[C@H]1c1ccc(=O)oc1
CYP3A [4]
  IC50 shift at 0.5 h: 24.8
[7]
  IC50: 13.4 µM
[8]
  IC50: 0.54 µM

## C[C@]12CCC(=O)C[C@H]1CC[C@@H]1[C@@H]2CC[C@]2(C)[C@@H](c3ccc(=O)oc3)C[C@H]3O[C@]132
CYP3A [4]
  IC50 shift at 0.5 h: 11.4
[7]
  IC50: 5.93 µM
[8]
  IC50: 0.52 µM

## C[C@]12CC[C@H](O)C[C@H]1CC[C@@H]1[C@@H]2CC[C@]2(C)[C@@H](c3ccc(=O)oc3)CC[C@]12O [BUFALIN]
CYP3A [34]
  activity at 10 min, 10 µM: 6.81%
[7]
  IC50: 11.4 µM
[8]
  IC50: 0.74 µM
CYP3A [35]
  inhibition at 10 min, 10 µM: 53%

Source: ChEMBL document CHEMBL5042538 (J Med Chem, 2022)
